Assays:
[1] = Solvent capability: Taxol (Example 28); assay type: physicochemical; conditions: 0.5 mM in DMSO or in the composition with 17% EtOH
Procedure: 0.5 mM Taxol solution can be prepared (0.0017 gr in 4 ml) in either DMSO or the enriched nanostructure composition of the present embodiments with 17% EtOH. Absorbance can be detected with a spectrophotometer.

[2] = Solubilizing Daunorubicine; assay type: physicochemical; conditions: 2 mg/ml in GENC or RO water
Procedure: Required concentration: 2 mg/ml

Row | SMILES | dissolution [1] | dissolution [2]
1 | CC(=O)O[C@H]1C(=O)[C@@]2(C)[C@H]([C@H](OC(=O)c3ccccc3)[C@]3(O)C[C@H](OC(=O)[C@H](O)[C@@H](NC(=O)c4ccccc4)c4ccccc4)C(C)=C1C3(C)C)[C@]1(OC(C)=O)CO[C@@H]1C[C@@H]2O [Taxol, Paclitaxel] | dissolved both in DMSO and the enriched nanostructure composition | –
2 | COc1cccc2c1C(=O)c1c(O)c3c(c(O)c1C2=O)C[C@@](O)(C(C)=O)C[C@@H]3O[C@H]1C[C@H](N)[C@H](O)[C@H](C)O1 [Daunorubicine] | – | dissolved easily both in the enriched nanostructure composition of the present embodiments and in RO water
